A word on the IC50: it is the concentration at which inhibition is half-maximal. A word on the inhibition: it is the change of the read-out against control, counted positive when it falls. A low value points to a response near the control.

“Also recorded” adds a separate entry of the source.

One experiment relates to HT-1080. The experiment in a line: WST-1 proliferation assay, HT-1080. Type of experiment: cell-based. Conditions: Homo sapiens; Fibrosarcoma HT-1080; read-out: Anti-proliferative activity IC50 (μM) ± SD. The protocol:
(§1) All the cancer cell lines were maintained in cultured in DMEM GlutaMAX™ (GIBCO Invitrogen, France, cat no 31966047) enhanced with 10% foetal bovine serum (GIBCO Invitrogen, France, cat no 10270-106) and 1% penicillin G/streptomycin (GIBCO Invitrogen, France, cat no 15140-122). Only Panc-10.5 cells were cultivated in RPMI 1640 medium (Gibco) supplemented with 2 mM L-glutamine, 1.5 g/L sodium bicarbonate, 4.5 g/L glucose, 10 mM HEPES, 1 mM sodium pyruvate, 10 Units/ml human insulin, […] (SVF): 15% (75 ml in 500 ml of medium).
(§2) Cells were grown as subconfluent monolayer and cultured in 75 cm^2 flasks at 37° C., 5% CO2 in a humidified atmosphere, and medium was changed every two days. […]
(§3) The cell proliferation WST-1 assay is a colorimetric assay for the quantification of cell proliferation and viability, based on the enzymatic cleavage of the tetrazolium salt WST-1 added to the culture medium, to a water soluble colored formazan dye, detected by absorbance at 450 nm, by mitochondrial succinate-tetrazolium reductase in viable cells. […]
(§4) After an incubation period of 72 h, at day 4, were prepared the 19 ml medium with reagent WST-1 1 ml ([…]). […] The cells were incubated at 37° C. in a humidified atmosphere of 5% CO2 for 1 h 30 and the absorbance at 450-655 nm was measured by Microplate Manager 5.2 (Bio-Rad).
Background: Tetrazolium dyes change colour on reduction, which living cells bring about.

A further experiment deals with OPM-2. Nature of the experiment: WST-1 proliferation assay, OPM-2. Type of experiment: cell-based. Conditions: Homo sapiens; Myeloma OPM-2; read-out: Anti-proliferative activity IC50 (μM) ± SD. The method, then:
as §1, §2, §3, §4

The test system of another experiment is KMS-II. Nature of the experiment: WST-1 proliferation assay, KMS-II. Type of experiment: cell-based. Conditions: Homo sapiens; Myeloma KMS-II; read-out: Anti-proliferative activity IC50 (μM) ± SD. The protocol:
as §1, §2, §3, §4

In the next experiment the test system is ERY-1. The experiment in a line: WST-1 proliferation assay, ERY-1. Type of experiment: cell-based. Conditions: Homo sapiens; Erythroleukemia ERY-1; read-out: Anti-proliferative activity IC50 (μM) ± SD. The method, then: as §1, §2, §3, §4
Another experiment has as its system MDAMB-231 cells. The experiment in a line: Adhesion test (crystal violet), MDA-MB-231. Type of experiment: cell-based, Human. Conditions: MDAMB-231, FIGS. 1A-C. The method, then:
The crystal violet (hexamethyl pararosaniline chloride) is used as biologic colorant. It enters in the living cells, allowing the visualisation of the dark purple adherent living cells on the bottom of the plate.
After an incubation period of 72 h, the adherent cells were fixed with […] paraformaldehyde
3% for 15 min at room temperature. The medium and non-adherent cells were removed, and the cells were washed extensively with […] PBS (+Ca^2+ and +Mg^2+) (Lonza) and then stained with 50 μl of crystal violet 0.04% for 30 min at room temperature. The cells were washed gently 3 times with 100 μl PBS and were permeabilised with 100 μl triton 2% for 15 min. The microplate was stirred to obtain a homogenous solution and absorbance was quantified at 580 nm by Microplate Manager 5.2.
The percentage of inhibition is calculated as follow: % inhibition=100−[(DOsample/DOcontrol)*100].

Experiment [1] has as its system breast cancer cells (MDA-MB-231). The experiment in a line: Apoptosis assay (Annexin V-FITC/PI), MDA-MB-231. Conditions: IC50 concentration, 72 h (FIG. 5B). Type of experiment: cell-based, Human. The method, then:
The level of apoptosis in endothelial (HUVEC) and breast cancer cells (MDA-MB-231) was detected by Annexin V-FITC Apoptosis Detection Kit (ref 556547, BD Biosciences, France) according to the manufacturer's instructions. Briefly, HUVEC and MDA-MB-231 cells were treated separately with DMSO (control) and the compounds of the invention at the concentration corresponding to the IC50, obtained by the proliferation assay, for 72 h. After treatment, all cell including both detached and attached cells were collected, centrifugated at 14000 rpm for 5 min and the apoptotic cells were detected by staining with Annexin V-FITC and (propidium iodide) PI. The cells were resuspended in 100 μl Annexin V binding buffer (10 mM Hepes/NaOH, pH 7.4, 140 mM NaCl, […]) containing 5 μl of Annexin V-FITC and 5 μl of PI (propidium iodide). Samples were gently mixed and incubated for 2 h on ice and in the dark. Viable and apoptotic cell were detected by flow citometry (FACS Calibur Becton Dickinson, France). Apoptotic cells include both the early apoptotic portion (Annexin V-positive) and the late apoptotic portion (Annexin V- and PI-positive). Staurosporine is used as a positive control of apoptosis induction.

For a further experiment, the system named is HUVEC cells. The experiment in a line: Tube formation assay. The experiment is classed as cell-based. Conditions: HUVEC on collagen, IC50 concentration (FIGS. 1D, 3B). The method, then: Collagen type I (1 mg/ml, BD) was mixed with 0.1N NaOH, 0.1% bicarbonate and 10× in medium EBM-2 and kept on ice until placed into the wells. The assay was prepared in 96-well plate format and the bottom layer of collagen was formed by adding 70 μL of the solution per well and allowing subsequent gelation at 37° C. for 30 min. The HUVEC cells were then seeded on collagen at […] cells per well. After monolayer formation (one day), a second layer of collagen 200 μL per well was prepared according to the same protocol and gently placed on top of the cell layer. The compounds of the invention were added to the cells at the adhesion step (concentration corresponding to the Inhibitory Concentration 50 (IC50)). After 24 and 48 h of incubation at 37° C., tube formation was observed and pictures were taken.

The test system of a further experiment is MDA-MB-438. Nature of the experiment: WST-1 proliferation assay, MDA-MB-438. Type of experiment: cell-based. Conditions: Homo sapiens; MDA-MB-438, 0.05 μM.
The subject of a further experiment is HCT-116. The experiment in a line: WST-1 proliferation assay, HCT-116. Conditions: Homo sapiens; HCT-116, 0.05 μM. The experiment is classed as cell-based.

As to `Cc1ccc(-c2nc3ccccc3[nH]2)cc1NC(=S)NC(=O)c1ccc2c(c1)OCCO2` [Compound 1, N-[5-(1H-benzimidazol-2-yl)-2-methylphenyl]-N′-(2,3-dihydro-1,4-benzodioxin-6-ylcarbonyl)thiourea], the half-maximal inhibitory concentration (IC50) with HT-1080 is 0.3 ± 0.23 µM; in the experiment with OPM-2, 2.5 ± 0.09 µM; in the experiment with KMS-II, 2.3 ± 0.01 µM; in the experiment on ERY-1, 0.3 ± 0.04 µM. Further, the “inhibition of adhesion of cancer cells in culture” value in the experiment on MDAMB-231 cells is given as “inhibited the adhesion”. Further, the “induction of apoptosis in cancer cells” value in [1] is “induced the apoptosis; also recorded: induction of apoptosis”. The “formation of new blood vessels (tube formation)” value with HUVEC cells is on record as “inhibited the tube formation; also recorded: effectively inhibited”. The values for the inhibition at 0.05 µM in the experiment on MDA-MB-438 and in the experiment with HCT-116 were 2% and 0%, respectively.

For `O=C(NC(=S)Nc1cccc(-c2nc3ccccc3[nH]2)c1)c1ccc2c(c1)OCCO2` [Compound 2, N-[3-(1H-benzimidazol-2-yl)phenyl]-N′-(2,3-dihydro-1,4-benzodioxin-6-ylcarbonyl)thiourea], the concentration for half-maximal inhibition (IC50) was found to be 0.07 ± 0.03 µM in the experiment with HT-1080, 0.5 ± 0.01 µM in the experiment on OPM-2, 1.8 ± 0.02 µM in the experiment on KMS-II and 0.1 ± 0.05 µM in the experiment with ERY-1. Also, the “inhibition of adhesion of cancer cells in culture” value with MDAMB-231 cells is reported as “inhibited the adhesion”. The “induction of apoptosis in cancer cells” value in experiment [1] was “induced the apoptosis; also recorded: induction of apoptosis”. Also, the “formation of new blood vessels (tube formation)” value in the experiment on HUVEC cells is “inhibited the tube formation; also recorded: effectively inhibited”. Besides, the inhibition at 0.05 µM in the experiment with MDA-MB-438 amounted to 13%; with HCT-116, 25%.
